Patent publication US20090124636A1, “CHEMICAL COMPOUNDS” (priority 2006, published 2009)

The compounds below were run on HIV-1 fusion (assay: cells). Conditions: HIV cell fusion assay; HeLa P4 (CCR5/CD4) and CHO-Tat10 (gp160 JRFL) cells; read-out: IC50.
Type: cell-based
Description: The gp160 induced cell-cell fusion assay uses a HeLa P4 cell line and a CHO-Tat10 cell line.
The HeLa P4 cell line expresses CCR5 and CD4 and has been transfected with HIV-1 LTR-β-Galactosidase. The media for this cell line is Dulbecco modified eagle's medium (D-MEM) (without L-glutamine) containing 10% foetal calf serum (FCS), 2 mM L-glutamine, penicillin/streptomycin (Pen/Strep; 100 U/mL penicillin+[…] streptomycin), and 1 μg/ml puromycin.
The CHO cell line is a Tat (transcriptional trans activator)-expressing clone from a CHO JRR17.1 cell line that has been transfected with pTat puro plasmid. The media for this cell line is rich medium for mammalian cell culture originally developed at Roswell Park Memorial Institute RPMI1640 (without L-glutamine) containing 10% FCS, 2 mM L-glutamine, 0.5 mg/ml Hygromycin B and 12 μg/ml puromycin. The CHO JRR17.1 line expresses gp160 (JRFL) and is a clone that has been selected for its ability to fuse with a CCR5/CD4 expressing cell line.
Upon cell fusion, Tat present in the CHO cell is able to transactivate the HIV-1 long terminal repeat (LTR) present in the HeLa cell leading to the expression of the β-Galactosidase enzyme. This expression is then measured using a Fluor Ace™ β-Galactosidase reporter assay kit (Bio-Rad cat no. 170-3150). This kit is a quantitative fluorescent assay that determines the level of expression of β-galactosidase using 4-methylumbelliferyl-galactopyranoside (MUG) as substrate. β-Galactosidase hydrolyses the fluorogenic substrate resulting in release of the fluorescent molecule 4-methylumbelliferone (4 MU). Fluorescence of 4-methylumbelliferone is then measured on a fluorometer using an excitation wavelength of 360 nm and emission wavelength of 460 nm.
`Cc1cccc(C)c1C(=O)N1CCC(N2CC[C@@H](N(Cc3ccccc3F)C(=O)C3CC3)C2)CC1` [Example 3] gave an IC50 of 0.2 nM. `Cc1cc[n+]([O-])c(C)c1C(=O)N1CCC(N2CC[C@@H](N(Cc3ccccc3)C(=O)C3CC3)C2)CC1` [Example 54] was tested, and the IC50 was 34.3 nM. With `Cc1cccc(C)c1C(=O)N1CCC(N2CC[C@@H](N(Cc3cccc(F)c3)C(=O)C3CC3)C2)CC1` [Example 9] the IC50 was 0.8 nM. With `COCC(=O)N(Cc1cccc(F)c1F)[C@@H]1CCN(C2CCN(C(=O)c3c(C)ccnc3C)CC2)C1` [Example 26] the IC50 was 6.51 nM. `Cc1ccnc(C)c1C(=O)N1CCC(N2CC[C@@H](N(Cc3ccccc3F)C(=O)C3CC(F)(F)C3)C2)CC1` [Example 28] gave an IC50 of 12.4 nM. Work on `Cc1cccc(C)c1C(=O)N1CCC(N2CC[C@@H](N(Cc3ccc(F)cc3)C(=O)C3CC3)C2)CC1` [Example 15] yielded an IC50 of 34.1 nM.

Same assay, conditions: HIV cell fusion assay; unit μm printed under the cell; read-out: IC50
`O=C(c1ccccc1)N1CCC(N2CC[C@@H](N(Cc3ccccc3)C(=O)C3CC3)C2)CC1` [Example 56] showed an IC50 of 1900 nM.
